Source: patent publication US20250059164A1, “IRAK DEGRADERS AND USES THEREOF” (Kymera Therapeutics, Inc., priority 2023, published 2025)

How the values were obtained:
[1] = Rodent pharmacokinetics (rat PK); format: in vivo; conditions: po, dosed intravenously or orally by gavage, plasma, read-out: F % (bioavailability)
Procedure, shortened: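 Rats were dosed IV or by oral gavage, with jugular blood taken predose and at 5 min (IV only), 15, 30 min and 1, 2, 4, 8, 24 h. Plasma was separated by centrifugation at 4 °C. Oral bioavailability (F %) is coded A (≥5%) or B (≤5%).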

[2] = molecular target: T1, IRAK4 (Homo sapiens, UniProt Q9NWZ3); experiment: IRAK4 MSD degradation in OCI-LY10; format: cell-based; conditions: OCI-LY10 cells, 24 hrs, Meso Scale Discovery
T1 construct: endogenous in cells; host or cells: OCI-LY10
T1 sequence (Q9NWZ3 1-460): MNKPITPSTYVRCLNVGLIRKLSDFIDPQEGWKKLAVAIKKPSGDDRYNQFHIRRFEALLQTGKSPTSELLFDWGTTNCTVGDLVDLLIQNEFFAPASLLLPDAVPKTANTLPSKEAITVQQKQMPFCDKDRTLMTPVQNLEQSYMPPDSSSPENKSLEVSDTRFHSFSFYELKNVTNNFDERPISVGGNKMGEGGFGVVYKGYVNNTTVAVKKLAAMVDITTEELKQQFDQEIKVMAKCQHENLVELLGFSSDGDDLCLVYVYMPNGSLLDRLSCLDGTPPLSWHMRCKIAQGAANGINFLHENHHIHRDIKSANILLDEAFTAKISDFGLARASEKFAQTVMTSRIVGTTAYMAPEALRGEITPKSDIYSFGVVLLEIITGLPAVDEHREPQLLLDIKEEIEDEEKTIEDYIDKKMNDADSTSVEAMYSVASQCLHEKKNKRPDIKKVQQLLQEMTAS
Procedure, shortened: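 OCI-LY10 cells treated 4 to 24 hours at 37° C. with 8-dose 1:3 series, top 1 to 10 μM. IRAK4 in lysates quantified by MSD sandwich immunoassay (mouse capture, rabbit detection, SULFO-TAG anti-rabbit). DC50 from three-parameter logistic fit.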

SMILES | bioavailability [1] | DC50 [2]
Cn1c(=O)n(C2CCC(=O)NC2=O)c2cccc([C@@H]3CCN(C[C@H]4CC[C@H](c5nc6cc(C(C)(C)O)c(NC(=O)c7ccnc(C(F)(F)F)n7)cc6s5)CC4)C[C@H]3F)c21 (some centres unmarked) [I-170] | ≥ 5% | < 10 nM
Cn1c(=O)n(C2CCC(=O)NC2=O)c2cccc([C@@H]3CCN(C[C@H]4CC[C@H](n5cc6cc(NC(=O)c7cncc(C(F)(F)F)n7)c(C(C)(C)O)cc6n5)CC4)C[C@H]3F)c21 (some centres unmarked) [I-171] | ≤ 5% | < 10 nM
Cn1c(=O)n(C2CCC(=O)NC2=O)c2cccc([C@@H]3CCN(C[C@H]4CC[C@H](n5cc6cc(NC(=O)c7cncc(C(F)(F)F)n7)c(C#N)cc6n5)CC4)C[C@H]3F)c21 (some centres unmarked) [I-172] | ≤ 5% | < 10 nM
Cn1c(=O)n(C2CCC(=O)NC2=O)c2cccc([C@@H]3CCN(C[C@H]4CC[C@H](c5nc6cc(C(C)(C)O)c(NC(=O)c7cncc(C(F)(F)F)n7)cc6s5)CC4)C[C@H]3F)c21 (some centres unmarked) [I-173] | ≤ 5% | < 10 nM
Cn1c(=O)n(C2CCC(=O)NC2=O)c2cccc([C@@H]3CCN(C[C@H]4CC[C@H](n5cc6cc(NC(=O)c7cc(C(F)(F)F)cnn7)ccc6n5)CC4)C[C@H]3F)c21 (some centres unmarked) [I-175] | ≤ 5% | > 200 nM
Cn1c(=O)n(C2CCC(=O)NC2=O)c2cccc(C#CCN3CCN(C[C@H]4CC[C@H](n5cc(NC(=O)c6cnn7ccc(N8C[C@H]9C[C@@H]8CO9)nc67)c(C(F)F)n5)CC4)C(=O)C3)c21 (some centres unmarked) [I-185] | ≤ 5% | < 10 nM
Cn1c(=O)n(C2CCC(=O)NC2=O)c2cccc(C#CCN3CCN(C[C@H]4CC[C@H](n5cc(NC(=O)c6cnn7ccc(N8C[C@H]9C[C@@H]8CO9)nc67)c(C(F)F)n5)CC4)CC3=O)c21 (some centres unmarked) [I-186] | ≤ 5% | < 10 nM
Cn1c(=O)n(C2CCC(=O)NC2=O)c2cccc([C@@H]3CCN(C[C@H]4CC[C@H](n5cc6cc(NC(=O)c7cncc(C#N)c7)c(C(C)(C)O)cc6n5)CC4)C[C@H]3F)c21 (some centres unmarked) [I-188] | ≤ 5% | < 10 nM
COc1cc2nn([C@H]3CC[C@H](CN4CC[C@@H](c5cccc6c5n(C)c(=O)n6C5CCC(=O)NC5=O)[C@H](F)C4)CC3)cc2cc1NC(=O)c1cncc(C(F)(F)F)n1 (some centres unmarked) [I-189] | ≤ 5% | < 10 nM
Cn1c(=O)n(C2CCC(=O)NC2=O)c2cccc([C@@H]3CCN(C[C@H]4CC[C@H](n5cc6cc(NC(=O)c7ccnc(C(F)(F)F)n7)ccc6n5)CC4)C[C@H]3F)c21 (some centres unmarked) [I-190] | ≤ 5% | > 200 nM
Cn1c(=O)n(C2CCC(=O)NC2=O)c2cccc(N3CCC(F)(CN4CCC(c5nc6cc(C(C)(C)O)c(NC(=O)c7cccc(C(F)(F)F)n7)cc6s5)CC4)CC3)c21 (centres unmarked) [I-191] | ≤ 5% | 10 to 100 nM
Cn1c(=O)n(C2CCC(=O)NC2=O)c2cccc([C@@H]3CCN(C[C@H]4CC[C@H](c5cn6cc(NC(=O)c7cncc(C(F)(F)F)n7)ccc6n5)CC4)C[C@H]3F)c21 (some centres unmarked) [I-193] | ≤ 5% | < 10 nM
Cn1c(=O)n(C2CCC(=O)NC2=O)c2cccc([C@@H]3CCN(C[C@H]4CC[C@H](c5cc6cc(NC(=O)c7cncc(C(F)(F)F)n7)ccn6n5)CC4)C[C@H]3F)c21 (some centres unmarked) [I-194] | ≥ 5% | < 10 nM
Cn1c(=O)n(C2CCC(=O)NC2=O)c2cccc([C@@H]3CCN(C[C@H]4CC[C@H](n5cc6cc(NC(=O)c7nccc(C(F)(F)F)n7)ccc6n5)CC4)C[C@H]3F)c21 (some centres unmarked) [I-195] | ≤ 5% | > 200 nM
Cn1c(=O)n(C2CCC(=O)NC2=O)c2cccc([C@@H]3CCN(C[C@H]4CC[C@H](n5cc6cc(NC(=O)c7cc(C(F)(F)F)ncn7)ccc6n5)CC4)C[C@H]3F)c21 (some centres unmarked) [I-196] | ≤ 5% | > 200 nM
Cn1c(=O)n(C2CCC(=O)NC2=O)c2cccc(N3CCC(F)(CN4CCC(c5nc6cc(C(C)(C)O)c(NC(=O)c7cccc(C(F)(F)F)n7)cc6o5)CC4)CC3)c21 (centres unmarked) [I-197] | ≤ 5% | > 200 nM
COc1cc2nn([C@H]3CC[C@H](CN4CC[C@@H](c5cccc6c5n(C)c(=O)n6C5CCC(=O)NC5=O)[C@H](F)C4)CC3)cc2cc1C(=O)Nc1cccc(C(F)(F)F)n1 (some centres unmarked) [I-200] | ≤ 5% | < 10 nM
Cn1c(=O)n(C2CCC(=O)NC2=O)c2cccc([C@@H]3CCN(C[C@H]4CC[C@H](n5cc6cc(C(=O)Nc7cccc(C(F)(F)F)n7)ccc6n5)CC4)C[C@H]3F)c21 (some centres unmarked) [I-201] | ≤ 5% | < 10 nM
Cn1c(=O)n(C2CCC(=O)NC2=O)c2cccc([C@@H]3CCN(C[C@H]4CC[C@H](n5cc6cc(NC(=O)c7cncc(C(F)(F)F)n7)c(Cl)cc6n5)CC4)C[C@H]3F)c21 (some centres unmarked) [I-210] | ≤ 5% | < 10 nM

SMILES | bioavailability [1] | DC50 [2]
Cn1c(=O)n(C2CCC(=O)NC2=O)c2cccc([C@@H]3CCN(C[C@H]4CC[C@H](n5cc6cc(NC(=O)c7cncc(C(F)(F)F)n7)c(C(F)F)cc6n5)CC4)C[C@H]3F)c21 (some centres unmarked) [I-214] | ≤ 5% | < 10 nM
COc1cc2nn([C@H]3CC[C@H](CN4CCC5(CCN(c6cccc7c6n(C)c(=O)n7C6CCC(=O)NC6=O)CC5)C(F)(F)C4)CC3)cc2cc1C(=O)Nc1cncc(C#N)c1 (some centres unmarked) [I-228] | ≤ 5% | < 10 nM
COc1cc2nn([C@H]3CC[C@H](CN4CCC5(CN(c6cccc7c6n(C)c(=O)n7C6CCC(=O)NC6=O)C5)C(F)(F)C4)CC3)cc2cc1NC(=O)c1cncc(C)c1 (some centres unmarked) [I-243] | ≤ 5% | < 10 nM
Cn1c(=O)n(C2CCC(=O)NC2=O)c2cccc([C@@H]3CCN(C[C@H]4CC[C@H](n5cc6cc(NC(=O)c7cccc(C(F)(F)F)c7)ncc6n5)CC4)C[C@H]3F)c21 (some centres unmarked) [I-244] | ≤ 5% | < 10 nM
Cn1c(=O)n(C2CCC(=O)NC2=O)c2cccc([C@@H]3CCN(C[C@H]4CC[C@H](n5cc6cc(NC(=O)c7cccc(C(F)(F)F)c7)ccc6n5)CC4)C[C@H]3F)c21 (some centres unmarked) [I-245] | ≤ 5% | < 10 nM
COc1cc2nn([C@H]3CC[C@H](CN4CC[C@@H](c5cccc6c5n(C)c(=O)n6C5CCC(=O)NC5=O)[C@H](F)C4)CC3)cc2cc1NC(=O)c1cccc(C(F)(F)F)c1 (some centres unmarked) [I-246] | ≤ 5% | < 10 nM
COc1cc2nn([C@H]3CC[C@H](CN4CCC5(CN(c6cccc7c6n(C)c(=O)n7C6CCC(=O)NC6=O)C5)C(F)(F)C4)CC3)cc2cc1NC(=O)c1cncc(C#N)c1 (some centres unmarked) [I-247] | ≤ 5% | < 10 nM
COc1cc2nn([C@H]3CC[C@H](CN4CCC5(CN(c6cccc7c6n(C)c(=O)n7C6CCC(=O)NC6=O)C5)C(F)(F)C4)CC3)cc2cc1NC(=O)c1cncc(F)c1 (some centres unmarked) [I-248] | ≤ 5% | < 10 nM
Cn1c(=O)n(C2CCC(=O)NC2=O)c2cccc([C@@H]3CCN(C[C@H]4CC[C@H](n5cc6cc(NC(=O)c7cccc(C#N)c7)ccc6n5)CC4)C[C@H]3F)c21 (some centres unmarked) [I-249] | ≤ 5% | < 10 nM
COc1cc2nn([C@H]3CC[C@H](CN4CC[C@@H](c5cccc6c5n(C)c(=O)n6C5CCC(=O)NC5=O)[C@H](F)C4)CC3)cc2cc1NC(=O)c1cccc(C#N)c1 (some centres unmarked) [I-250] | ≤ 5% | < 10 nM
COc1cc2nn([C@H]3CC[C@H](CN4CC[C@@H](c5cccc6c5n(C)c(=O)n6C5CCC(=O)NC5=O)[C@H](F)C4)CC3)cc2cc1NC(=O)c1cncc(C(F)(F)F)c1 (some centres unmarked) [I-252] | ≤ 5% | < 10 nM
Cn1c(=O)n(C2CCC(=O)NC2=O)c2cccc(N3CC4(CCN(C[C@H]5CC[C@H](n6cc7cc(NC(=O)c8cccc(C(F)(F)F)c8)ncc7n6)CC5)CC4(F)F)C3)c21 (some centres unmarked) [I-253] | ≤ 5% | < 10 nM
Cn1c(=O)n(C2CCC(=O)NC2=O)c2cccc(N3CC4(CCN(C[C@H]5CC[C@H](n6cc7cc(NC(=O)c8cccc(C(F)(F)F)c8)ccc7n6)CC5)CC4(F)F)C3)c21 (some centres unmarked) [I-254] | ≤ 5% | < 10 nM
COc1cc2nn([C@H]3CC[C@H](CN4CCC5(CN(c6cccc7c6n(C)c(=O)n7C6CCC(=O)NC6=O)C5)C(F)(F)C4)CC3)cc2cc1NC(=O)c1cccc(C(F)(F)F)c1 (some centres unmarked) [I-255] | ≤ 5% | < 10 nM
Cn1c(=O)n(C2CCC(=O)NC2=O)c2cccc(N3CC(OC[C@H]4CC[C@H](n5cc(NC(=O)c6cnn7ccc(N8C[C@H]9C[C@@H]8CO9)nc67)c(C(F)F)n5)CC4)C3)c21 (some centres unmarked) [I-256] | ≤ 5% | > 200 nM
COc1cc2nn([C@H]3CC[C@H](CN4CCC5(CCN(c6cccc7c6n(C)c(=O)n7C6CCC(=O)NC6=O)CC5)C(F)(F)C4)CC3)cc2cc1NC(=O)c1cncc(C)c1 (some centres unmarked) [I-257] | ≤ 5% | < 10 nM
COc1cc2nn([C@H]3CC[C@H](CN4CCC5(CCN(c6cccc7c6n(C)c(=O)n7C6CCC(=O)NC6=O)CC5)C(F)(F)C4)CC3)cc2cc1NC(=O)c1cncc(C#N)c1 (some centres unmarked) [I-259] | ≤ 5% | < 10 nM
COc1cc2nn([C@H]3CC[C@H](CN4CCC5(CN(c6c(F)ccc7c6n(C)c(=O)n7C6CCC(=O)NC6=O)C5)C(F)(F)C4)CC3)cc2cc1NC(=O)c1cncc(C#N)c1 (some centres unmarked) [I-260] | ≤ 5% | < 10 nM
